Results taken from PubChem BioAssay AID1259407 (Chemical Carcinogenesis Research Information System (CCRIS), 2018).
The source made the active and inactive calls. How the calls were made is not given here.

Tested on: CCRIS mutagenicity, Ames/micronucleus/aberration tests
Experiment: CCRIS mutagenicity studies
[1] = Test System: AMES SALMONELLA TYPHIMURIUM, Strain/Indicator: TA98, Metabolic Activation: NONE, Method: PREINCUBATION
[2] = Test System: AMES SALMONELLA TYPHIMURIUM, Strain/Indicator: TA100, Metabolic Activation: NONE, Method: PREINCUBATION

Which results are given for C=C(C)CCl?
mutagenic call (End Point: IN VITRO CHROMOSOMAL ABERRATIONS, Test System: CHL CELLS, Metabolic Activation: RAT, LIVER, S-9, SODIUM PHENOBARBITAL AND 5,6-BENZOFLAVONE): active; positive (structural changes); mutagenic call (Test System: AMES SALMONELLA TYPHIMURIUM, Strain/Indicator: TA97, Metabolic Activation: HAMSTER, LIVER, S-9, AROCLOR 1254 (10 OR 30%), Method: PREINCUBATION): inactive; negative; mutagenic call (Test System: AMES SALMONELLA TYPHIMURIUM, Strain/Indicator: TA97, Metabolic Activation: NONE, Method: PREINCUBATION): inactive; negative; mutagenic call (Test System: AMES SALMONELLA TYPHIMURIUM, Strain/Indicator: TA97, Metabolic Activation: RAT, LIVER, S-9, AROCLOR 1254 (10 OR 30%), Method: PREINCUBATION): inactive; negative; mutagenic call (Test System: AMES SALMONELLA TYPHIMURIUM, Strain/Indicator: TA98, Metabolic Activation: HAMSTER, LIVER, S-9, AROCLOR 1254 (10 OR 30%), Method: PREINCUBATION): inactive; negative; mutagenic call [1]: inactive; negative; mutagenic call (Test System: AMES SALMONELLA TYPHIMURIUM, Strain/Indicator: TA98, Metabolic Activation: RAT LIVER S-9, PHENOBARBITAL AND BETA-NAPHTHOFLAVONE, Method: PREINCUBATION): inactive; negative; mutagenic call (Test System: AMES SALMONELLA TYPHIMURIUM, Strain/Indicator: TA98, Metabolic Activation: RAT, LIVER, S-9, AROCLOR 1254 (10 OR 30%), Method: PREINCUBATION): inactive; negative; mutagenic call (Test System: AMES SALMONELLA TYPHIMURIUM, Strain/Indicator: TA100, Metabolic Activation: HAMSTER, LIVER, S-9, AROCLOR 1254 (10 OR 30%), Method: PREINCUBATION): inactive; negative; mutagenic call (Test System: AMES SALMONELLA TYPHIMURIUM, Strain/Indicator: TA100, Metabolic Activation: NONE, Method: LIQUID SUSPENSION): active; positive; mutagenic call [2]: inactive; negative; mutagenic call (Test System: AMES SALMONELLA TYPHIMURIUM, Strain/Indicator: TA100, Metabolic Activation: RAT LIVER S-9, PHENOBARBITAL AND BETA-NAPHTHOFLAVONE, Method: PREINCUBATION): inactive; negative; mutagenic call (Test System: AMES SALMONELLA TYPHIMURIUM, Strain/Indicator: TA100, Metabolic Activation: RAT, LIVER, S-9, AROCLOR 1254 (10 OR 30%), Method: PREINCUBATION): inactive; negative; mutagenic call (Test System: AMES SALMONELLA TYPHIMURIUM, Strain/Indicator: TA100, Metabolic Activation: RAT, LIVER, S-9, Method: LIQUID SUSPENSION): active; positive; mutagenic call (Test System: AMES SALMONELLA TYPHIMURIUM, Strain/Indicator: TA102, Metabolic Activation: NONE, Method: PREINCUBATION): inactive; negative; mutagenic call (Test System: AMES SALMONELLA TYPHIMURIUM, Strain/Indicator: TA102, Metabolic Activation: RAT LIVER S-9, PHENOBARBITAL AND BETA-NAPHTHOFLAVONE, Method: PREINCUBATION): inactive; negative; mutagenic call (Test System: AMES SALMONELLA TYPHIMURIUM, Strain/Indicator: TA102, Metabolic Activation: RAT, LIVER, S-9, PHENOBARBITAL AND 5,6-BENZOFLAVONE, Method: STANDARD PLATE): inactive; negative; mutagenic call (Test System: AMES SALMONELLA TYPHIMURIUM, Strain/Indicator: TA104, Metabolic Activation: NONE, Method: PREINCUBATION): inactive; negative; mutagenic call (Test System: AMES SALMONELLA TYPHIMURIUM, Strain/Indicator: TA104, Metabolic Activation: RAT LIVER S-9, PHENOBARBITAL AND BETA-NAPHTHOFLAVONE, Method: PREINCUBATION): inactive; negative; mutagenic call (Test System: AMES SALMONELLA TYPHIMURIUM, Strain/Indicator: TA1535, Metabolic Activation: HAMSTER, LIVER, S-9, AROCLOR 1254 (10 OR 30%), Method: PREINCUBATION): inactive; negative; mutagenic call (Test System: AMES SALMONELLA TYPHIMURIUM, Strain/Indicator: TA1535, Metabolic Activation: NONE, Method: PREINCUBATION): inactive; negative; mutagenic call (Test System: AMES SALMONELLA TYPHIMURIUM, Strain/Indicator: TA1535, Metabolic Activation: RAT LIVER S-9, PHENOBARBITAL AND BETA-NAPHTHOFLAVONE, Method: PREINCUBATION): inactive; negative; mutagenic call (Test System: AMES SALMONELLA TYPHIMURIUM, Strain/Indicator: TA1535, Metabolic Activation: RAT, LIVER, S-9, AROCLOR 1254 (10 OR 30%), Method: PREINCUBATION): inactive; negative; mutagenic call (Test System: AMES SALMONELLA TYPHIMURIUM, Strain/Indicator: TA1537, Metabolic Activation: HAMSTER, LIVER, S-9, AROCLOR 1254 (10 OR 30%), Method: PREINCUBATION): inactive; negative; mutagenic call (Test System: AMES SALMONELLA TYPHIMURIUM, Strain/Indicator: TA1537, Metabolic Activation: NONE, Method: PREINCUBATION): inactive; negative; mutagenic call (Test System: AMES SALMONELLA TYPHIMURIUM, Strain/Indicator: TA1537, Metabolic Activation: RAT LIVER S-9, PHENOBARBITAL AND BETA-NAPHTHOFLAVONE, Method: PREINCUBATION): inactive; negative; mutagenic call (Test System: AMES SALMONELLA TYPHIMURIUM, Strain/Indicator: TA1537, Metabolic Activation: RAT, LIVER, S-9, AROCLOR 1254 (10 OR 30%), Method: PREINCUBATION): inactive; negative; mutagenic call (Test System: AMES SALMONELLA TYPHIMURIUM, Strain/Indicator: TA2638, Metabolic Activation: RAT, LIVER, S-9, PHENOBARBITAL AND 5,6-BENZOFLAVONE, Method: STANDARD PLATE): inactive; negative; mutagenic call (Test System: E. COLI, Strain/Indicator: WP2 (PKM101), Metabolic Activation: RAT, LIVER, S-9, PHENOBARBITAL AND 5,6-BENZOFLAVONE, Method: STANDARD PLATE): inactive; negative; mutagenic call (Test System: E. COLI, Strain/Indicator: WP2 UVRA (PKM101), Metabolic Activation: RAT, LIVER, S-9, PHENOBARBITAL AND 5,6-BENZOFLAVONE, Method: STANDARD PLATE): inactive; negative; mutagenic call (Test System: E.COLI, Strain/Indicator: WP2UVRA/PKM101, Metabolic Activation: NONE, Method: PREINCUBATION): inactive; negative; mutagenic call (Test System: E.COLI, Strain/Indicator: WP2UVRA/PKM101, Metabolic Activation: RAT LIVER S-9, PHENOBARBITAL AND BETA-NAPHTHOFLAVONE, Method: PREINCUBATION): active; positive; mutagenic call (Test System: E.COLI, Strain/Indicator: WP2UVRA, Metabolic Activation: NONE, Method: PREINCUBATION): inactive; negative; mutagenic call (Test System: E.COLI, Strain/Indicator: WP2UVRA, Metabolic Activation: RAT LIVER S-9, PHENOBARBITAL AND BETA-NAPHTHOFLAVONE, Method: PREINCUBATION): inactive; negative

CN(N=O)C(=O)N[C@@H]1O[C@H](CO)[C@H](O)[C@H](O)[C@H]1O was tested. Which mutagenic call (Test System: CHINESE HAMSTER V-79, Strain/Indicator: V-79/8-AZAGUANINE, Metabolic Activation: NONE, Method: STANDARD PLATE) did it give?
The mutagenic call was “active; positive”.

Which results are given for NN(c1ccccc1)c1ccccc1?
mutagenic call (Test System: AMES SALMONELLA TYPHIMURIUM, Strain/Indicator: TA97, Metabolic Activation: NONE, Method: STANDARD PLATE): inactive; negative; mutagenic call (Test System: AMES SALMONELLA TYPHIMURIUM, Strain/Indicator: TA97, Metabolic Activation: RAT, LIVER, S-9, AROCLOR 1254, Method: STANDARD PLATE): inactive; negative; mutagenic call (Test System: AMES SALMONELLA TYPHIMURIUM, Strain/Indicator: TA100, Metabolic Activation: NONE, Method: STANDARD PLATE): inactive; negative; mutagenic call (Test System: AMES SALMONELLA TYPHIMURIUM, Strain/Indicator: TA100, Metabolic Activation: RAT, LIVER, S-9, AROCLOR 1254, Method: STANDARD PLATE): inactive; negative

CC(=O)c1cccc(N=Nc2ccc(N)c(C(C)=O)c2C)c1C was tested. Which mutagenic call [1] did it give?
Its mutagenic call is “inactive; negative”.

What about the mutagenic call (Test System: AMES SALMONELLA TYPHIMURIUM, Strain/Indicator: TA98, Metabolic Activation: RAT, LIVER, S-9, PHENOBARBITAL AND 5,6-BENZOFLAVONE, Method: PREINCUBATION) of the same compound?
Its mutagenic call is “inactive; negative”.

What about the mutagenic call [2] of the same compound?
The mutagenic call was “inactive; negative”.

What about the mutagenic call (Test System: AMES SALMONELLA TYPHIMURIUM, Strain/Indicator: TA100, Metabolic Activation: RAT, LIVER, S-9, PHENOBARBITAL AND 5,6-BENZOFLAVONE, Method: PREINCUBATION) of the same compound?
The mutagenic call was “inactive; negative”.

Which results are given for C=CCSS(=O)CC=C (stereo not given)?
mutagenic call (End Point: IN VITRO CHROMOSOMAL ABERRATIONS, Test System: HUMAN PERIPHERAL BLOOD LYMPHOCYTES, Metabolic Activation: NONE): inactive; negative; mutagenic call (End Point: IN VITRO CHROMOSOMAL ABERRATIONS, Test System: HUMAN PERIPHERAL BLOOD LYMPHOCYTES, Metabolic Activation: RAT, LIVER, S-9, PHENOBARBITONE): inactive; negative
